Measured values as given in patent publication US20120022159A1, “AMPHIPHILIC STAR-LIKE OR SCORPION-LIKE MACROMOLECULES, VARIOUS COMPOSITIONS AND USES THEREOF” (priority 2004, published 2012).

tested on: human umbilical vein endothelial cells (HUVECs); assay: Uptake of dye-loaded AScMs in HUVEC monitored by cellular accumulation of fluorescent dyes; type: cell-based; details: AScMs at concentrations above the CMC
Protocol: Methods Amphiphilic scorpion-like macromolecules (AScMs) are block copolymers that form micelles at concentrations above their CMC (5×10^−7 M). The uptake of AScMs was investigated in human umbilical vein endothelial cells (HUVECs) by monitoring cellular accumulation of the fluorescent dyes (R110, R123 and LY, respectively). Briefly, fluorescent dyes were added to AScMs solutions (0.0001-1 mM) and incubated at 37° C. for at least 6 hours prior to cell incubation. After determination of R110, R123 and LY partitioning into the AScMs micelles, dye-loaded AScMs were incubated with HUVEC. Uptake of dye-loaded AScMs was investigated as a function of time (15, 30, 60, 90 and 120 minutes) and AScMs concentration (0.0001-1 mM). Furthermore, intracellular distribution and localization of dye-loaded AScMs in HUVEC was investigated using confocal microscope. […] The decreased accumulation of R110, R123 and LY in HUVEC monolayers was inversely correlated with the extent of their partitioning into AScMs. Uptake of R110, R123 and LY-loaded micelles was also time-dependent. […] Furthermore, confocal microscopy studies confirmed increased fluorescence activity in the cells with increase in the incubation time. […] Thus, AScMs can be used to localize therapeutic compounds into cells, for example, to achieve a sustained therapeutic effect.

Row | SMILES | dye accumulation in HUVEC monolayers
1 | Nc1ccc2c(-c3ccccc3C(=O)O)c3ccc(N)cc3[o+]c2c1.[Cl-] [R110] | significant decrease
2 | COC(=O)c1ccccc1-c1c2ccc(N)cc2[o+]c2cc(N)ccc12 [R123] | significant decrease
3 | NNC(=O)NN1C(=O)c2cc(S(=O)(=O)[O-])cc3c(N)c(S(=O)(=O)[O-])cc(c23)C1=O.[Li+].[Li+] [LY] | significant decrease

same assay, conditions: AScMs at concentrations below the CMC

Row | SMILES | dye accumulation in HUVEC monolayers
4 | Nc1ccc2c(-c3ccccc3C(=O)O)c3ccc(N)cc3[o+]c2c1.[Cl-] [R110] | significant increase
5 | COC(=O)c1ccccc1-c1c2ccc(N)cc2[o+]c2cc(N)ccc12 [R123] | significant increase
6 | NNC(=O)NN1C(=O)c2cc(S(=O)(=O)[O-])cc3c(N)c(S(=O)(=O)[O-])cc(c23)C1=O.[Li+].[Li+] [LY] | significant increase
